The test system of assay [1] is glucagon. Nature of the assay: In vivo assay of simultaneous release of growth hormone, insulin and glucagon (pentobarbital, arginine): glucagon. Set-up: species or system rats. The method, then:
(§1) Another test was conducted with the compound of Example 5 to determine its effect upon insulin and glucagon levels. The in vivo assay determining simultaneous release of growth hormone, insulin and glucagon was carried out by injecting three groups of male rats weighing about 200 to 250 g. (9 animals per group) with pentobarbital intraperitoneally at a dose of 50 mg/kg per rat followed 15 minutes […], a subcutaneous injection of SRIF at a dose of 0.2 mg/kg to another group of rats and a subcutaneous injection of saline solution to the third group of rats. Ten minutes after such injection the rats receive 150 mg. arginine in 0.5 ml. saline directly in the heart. Five minutes later the rats are decapitated, the blood collected and various radioimmunoassays are run.

For assay [2], the system named is insulin. Nature of the assay: In vivo assay of simultaneous release of growth hormone, insulin and glucagon (pentobarbital, arginine): insulin. Set-up: species or system rats. The method, then: as §1, with “pentobarbital” for “pentobarbital intraperitoneally at a dose of 50 mg/kg per rat followed 15 minutes”
In assay [3] the test system is growth hormone. Description: Growth hormone level by radioimmunoassay in nembutal-treated rats after subcutaneous injection. It is filed as in vivo. The method, then: The growth hormone activities of the compounds of Example 5 was determined by injecting rats weighing about 200-250 g. first with nembutal intraperitoneally at a dose of 50 mg/kg then after 5 minutes injecting the rats subcutaneously with a solution of the compound of Example 5 in saline at a dose of 2 mg/kg per rat. Blood samples are taken 15 minutes after injection with the compound of Example 5 and the growth hormone level determined by radioimmunoassay. […] The foregoing experiment was repeated but the dose of the compound of Example 5 was raised to 2.38 mg/kg and the blood was sampled 2 hours after injection.

Assay [4] concerns growth hormone. The method, then:
Another test was conducted with the compound of Example 5 to determine its effect upon insulin and glucagon levels. The in vivo assay determining simultaneous release of growth hormone, insulin and glucagon was carried out by injecting three groups of male rats weighing about 200 to 250 g. (9 animals per group) with pentobarbital intraperitoneally at a dose of 50 mg/kg per rat followed 15 minutes later by a subcutaneous injection of the compound of Example 5 at a dose of 2.7 mg/kg to one group of rats, a subcutaneous injection of SRIF at a dose of 0.2 mg/kg to another group of rats and a subcutaneous injection of saline solution to the third group of rats. Ten minutes after such injection the rats receive 150 mg. arginine in 0.5 ml. saline directly in the heart. Five minutes later the rats are decapitated, the blood collected and various radioimmunoassays are run.

Where [5] appears, read: male rats, 2.7 mg/kg subcutaneously, arginine stimulated.

Where two headings read alike, the source gives them in different places. Where a SMILES comes first, the peptide text is derived from it.

For `C[C@@H](O)[C@@H]1NC(=O)[C@H](Cc2ccccc2)NC(=O)[C@H]([C@@H](C)O)NC(=O)[C@H](CCCCN)NC(=O)[C@H](Cc2c[nH]c3ccccc23)NC(=O)[C@H](Cc2ccccc2)NC(=O)[C@H](Cc2ccccc2)NC(=O)[C@H](CC(N)=O)NC(=O)[C@H](CCCCN)NC(=O)CC[C@@H](C(=O)O)NC(=O)[C@H](CO)NC1=O` [Example 5, L-lysyl-L-asparaginyl-L-phenylalanyl-L-phenylalanyl-L-tryptophyl-L-lysyl-L- threonyl-L-phenylalanyl-L-threonyl-L-seryl-L-glutamyl (cyclo α-lysyl to γ-glutamyl) peptide] (HELM PEPTIDE1{K.N.F.F.W.K.T.F.T.S.E}$PEPTIDE1,PEPTIDE1,1:R1-11:R3$$$V2.0), in assay [1] (setting [5]), the glucagon levels result is listed as “neither glucagon nor insulin levels were lowered”. Moreover, the insulin levels entry in assay [2] (setting [5]) is recorded as “neither glucagon nor insulin levels were lowered”. Further, the growth hormone level came to 79 ± 14 ng/mL in assay [3] (rats, 2 mg/kg subcutaneously, blood 15 minutes after injection, control 132 ± 20) and 89 ± 23 ng/mL in assay [3] (rats, 2.38 mg/kg subcutaneously, blood 2 hours after injection, control 244 ± 38).
With “L-Lysyl-L-asparaginyl-L-phenylalanyl-L-phenylalanyl-D-tryptophyl-L-lysyl-L- threonyl-L-phenylalanyl-L-threonyl-L-seryl-glutamyl-(cyclo-α-lysyl to γ-glutamyl)peptide [Example 6]”, the Glucagon in assay [1] (experiment 3, dose 3,000 μg/kg, control 129±9) is 107±9 picog/ml. The Insulin amounted to 152±13 μU/ml in assay [2] (experiment 1, dose 3,000 μg/kg, control 194±17) and 93±9 μU/ml in assay [2] (experiment 3, dose 3,000 μg/kg, control 183±19). The growth hormone level in assay [3] (rats, 1,500 μg/kg, after four hours, control 182 ± 49) came out at 34 ± 11 nanograms per milliliter; in assay [3] (rats, 1,500 μg/kg, two hours after administration, control 180 ± 27), 18 ± 4 nanograms per milliliter. Further, the GH in assay [4] (experiment 1, dose 3,000 μg/kg, control 247±52) was 61 ± 7 ng/mL; in assay [4] (experiment 2, dose 12 μg/kg, control 315±22), 192 ± 29 ng/mL.

(Values after patent publication US4011182A, “Cyclic undecapeptide analogs of somatostatin and intermediates” (American Home Products Corporation, priority 1975, dated 1977).)
